Laboratory results from PMC7653765 (BMC Complementary Medicine and Therapies, 2020).
Like-named read-outs stand apart in the source and are kept apart here.

Test system: 3 T3-L1 adipocytes
Assay: Adipocyte glucose uptake test
Format: cell-based, mouse
Procedure: The 3 T3-L1 mouse embryonic fibroblasts were cultured for induction of adipogenesis, and […] 3 T3-L1 adipocytes were plated for glucose uptake. Krebs-Ringer-Phosphate-HEPES (KRPH) buffer was used to prepare 10-point 3-fold gradient diluted samples. After starvation, the adipocytes were rinsed with KRPH buffer. Ninety μL of gradient-diluted samples of different concentrations were added to each well with high- and low-signal control wells and incubated in a CO2 incubator for 30 min. Add 10 μL/well of KRPH buffer containing 0.25 μCi1- [3H] -deoxyglucose and 50 μM 2-deoxyglucose and incubate in a CO2 incubator for 20 min. Wash the cells with DPBS containing 10 mM glucose at 4 °C. Lysate fat cells with sodium hydroxide solution, transfer to scintillation tube, add scintillation fluid, and count with TriCarb.

[1] = mean ± SEM of 3 repeats, read-out: EC50, fat cell glucose uptake, Mean ± SEM
[2] = read-out: EC50, fat cell glucose uptake, N = 1, replicate N = 1, 3 T3-L1 adipocytes, 30 min sample, 20 min [3H]-deoxyglucose
[3] = read-out: EC50, fat cell glucose uptake, N = 2, replicate N = 2
[4] = read-out: EC50, fat cell glucose uptake, N = 3, replicate N = 3

Row | EC50 [1] [nM] | EC50 [2] [nM] | EC50 [3] [nM] | EC50 [4] [nM] | Substance
1 | 1.8 ± 0.2 | 0.9 | 1.7 | 2.2 | H-Insulin: recombinant human insulin injection obtained from Lilly, a regular insulin
2 | 3.7 ± 0.5 | 2.5 | 5.3 | 3 | S-Insulin: recombinant human-derived insulin from Sigma, a regular insulin, standard control
